Measured values: patent US20210205292A1, “INHIBITORS OF CREB-CBP INTERACTION FOR TREATMENT OF LEUKEMIA” (The Board of Trustees of the Leland Stanford Junior …, priority 2016, published 2021)
“Also recorded” adds a separate entry of the source.

Columns and labels:
HL-60 cells [1] = assay: Flow cytometry of apoptosis (c-PARP+, aqua amine+) in HL-60 cells; format: cell-based, human; details: 50 to 200 nM, 72 hours
Protocol: AML cell lines were purchased from ATCC and maintained with IMDM (Gibco) supplemented with 10% FBS (Fisher Scientific) and 1% PSG (Gibco). Cells were plated at a density of 2-4×10^5 cells/ml, and treated with various doses of Compound A in 0.1% DMSO or 0.1% DMSO alone. Cell counts and viability were determined using the Vi-CELL XR Cell Viability Analyzer (Beckman Coulter). HL-60 and KG-1 cells overexpressing CREB or CBP were generated using lentiviral gene delivery with subsequent puromycin selection and FACs sorting for GFP. CREB knockdown was achieved by infecting cells with a lentivirus expressing the shRNA sequence 5′-[…]-3′ (SEQ ID NO:). For chemotherapy combination experiments, combination index values were calculated using median effects analysis on Calcusyn software. Human patient bone marrow samples were cultured in DMEM plus 20% FBS and 1×PSG, supplemented with recombinant GM-CSF (20 ng/ml), G-CSF (20 ng/ml), SCF (50 ng/ml), IL-3 (20 ng/ml), and IL-6 (10 ng/ml). Cells were plated at a concentration of 1×10^5 cells/ml in a 12-well plate. Vehicle (0.1% DMSO) or Compound A (2 μM) was added for up to 72 hours. All samples contained >85% AML blasts and were not sorted prior to performing experiments. […] Single cell suspensions of bone marrow culture were subsequently analyzed on a D×P10 flow cytometer (Cytek). […]

HL-60 cells [2] = assay: HL-60 cell viability, Trypan blue exclusion assay; format: cell-based, human; details: 50 nM, 48 hours
Excerpt: FIG. 11, panels A-D, illustrates ABT-737 Causes Apoptosis in HL-60 Cells; CyTOF Gating Scheme. […] Panel D) CyTOF gating scheme, used to perform analysis specifically on AML cells within AML patient marrow samples.

CREB phosphorylation = CREB phosphorylation in HL-60 cells; format: cell-based, human; details: HL-60 cells; BI-D1870 5 μM, SB202190 10 μM, U0126 10 μM
Excerpt: FIG. 12, panels A-D, illustrates the results of CyTOF Phenotyping and Compound A Combination Studies. […] Viability for Compound A treatment alone was 87.4±7.3%, versus 55.3±3.4% and 49.5±2.3% when combined with ERK and RSK inhibitors, respectively (* indicates p<0.05 compared to cells treated with Compound A alone). Panel D) Compound A inhibits CREB phosphorylation in the presence of serum. HL-60 cells were serum-starved then stimulated with serum.
Cells were lysed in RIPA buffer (Sigma), and the protein concentrations were determined by BCA assay (Thermo Scientific Pierce). Lysates were solubilized in 6×SDS PAGE buffer and […] of protein was loaded into 6-15% SDS PAGE gels, pheresed, and then transferred onto […] PVDF membrane (Millipore). Primary antibodies were applied at a dilution of 1:1000. Anti-Bcl-2, -Bax, -Mcl-1, -Bcl-XL, -Cyclin A and -Cyclin D1 antibodies were purchased from Cell Signaling Technologies. Anti-total acetylated histone and -ac-H3K27 were purchased from Santa Cruz Biotechnologies. Anti-actin and -CREB antibodies were purchased from upstate. Secondary antibodies were used at a 1:2500 dilution and purchased from Thermo Scientific/Pierce. WesternBright ECL was used for image acquisition on Image Lab software (Bio-Rad).

HL-60 cells [3] = assay: HL-60 viability, combination of Compound A with kinase inhibitors; format: cell-based, human; details: 48 hours
[4] = tested on: HL60 (Human promyelocytic leukemia cell line); assay: CellTiter Glo assay in HL60 cells; format: cell-based
Protocol: (§1) The compounds prepared according to the methods described herein and tested for activity in the CellTiter Glo assay in HL60 (Human promyelocytic leukemia cell line), Jukat (human T lymphocyte cell line for acute T cell leukemia) and/or Nalm6 (human ALL cell line) cells.
(§2) Compounds were prepared according to the methods described herein and tested for activity in the CellTiter Glo assay in HL60 (Human promyelocytic leukemia cell line), Jukat (human T lymphocyte cell line for acute Tcell leukemia) and/or Nalm6 (human ALL cell line) cells.

[5] = tested on: Jukat (human T lymphocyte cell line for acute T cell leukemia); assay: CellTiter Glo assay in Jukat cells; format: cell-based
Protocol: as §1, §2

[6] = tested on: Nalm6 (human ALL cell line); assay: CellTiter Glo assay in Nalm6 cells; format: cell-based
Protocol: as §1, §2

Caspase-3 = Caspase-3 protease activity (ApoTarget kit); format: cell-based; details: etoposide control
Excerpt: The ApoTarget Caspase-3 Protease Activity Kit (Invitrogen) was used per manufacturer's instructions.
The balance between pro- and anti-apoptotic protein expression contributes to cell fate decisions. CREB regulates the expression of several anti-apoptotic proteins, including Bcl-2, Bcl-XL and Mcl-1. Bcl-2 expression in particular is known to mediate resistance to chemotherapy and influence clinical outcome in a number of cancer types, including AML. The ability of Compound A to cause apoptosis by disrupting the CREB-driven expression of these anti-apoptotic proteins was examined. In HL-60 cells treated with Compound A, apoptosis is induced in a dose- and time-dependent manner. […] Compound A elicited apoptosis through the intrinsic apoptosis pathway, with activation of Caspase-3 (FIG. 5, panel B) and detectable Caspase-9 cleavage (data not shown). Relative caspase-3 activity at 24 hours: 5.4±0.8 for etoposide, 1±0.78, 0.93±0.71, 1.02±0.67, 2.9±0.58, 5.1±0.63, 4.1±0.71 for 0, 1, 1.5, 2, 2.5 and 3 mM Compound A, respectively. Activity at 72 hours: 1.2±0.05 for etoposide, 1.0±0.02, 1.9±0.03, 3.7±0.04, 4.4±0.05, 2.1±0.03, 1.9±0.02 for 0, 1, 1.5, 2, 2.5 and 3 mM Compound A, respectively. The transcription of Bcl-2 decreased following 72 hours of 2 mM Compound A treatment (FIG. 5, panel C), and this was verified by Western blot analysis (FIG. 5, panel D). […] To confirm whether loss of Bcl-2 function alone is sufficient to induce apoptosis in AML cells, HL-60 cells were treated with the validated Bcl-2 inhibitor ABT-737 (50 to 200 nM). […] Bcl-2 levels are influenced by CREB expression in these AML cell lines (FIG. 11, panel C).

[7] = tested on: CREB-driven promoter (CRE); assay: CREB-driven (CRE) luciferase reporter in KG-1 cells; format: cell-based; details: KG-1 cells, 6 hours; 3, 10 and 30 μM
Protocol: (§3) KG-1 cell lines were created to express luciferase in a CREB-dependent or non-CREB-dependent fashion using lentiviral gene delivery. Cells were sorted for mCherry expression by flow cytometry and selected with puromycin. Luciferase activity was measured on a […] using the Promega Luciferase Activity Kit (Promega) per manufacturer's instructions following six hours of treatment with Compound A or 0.1% DMSO. The split Renilla luciferase complementation assay has been described previously (Li BX, and Xiao X. Discovery of a small-molecule inhibitor of the KIX-KID interaction. Chembiochem: a European journal of chemical biology. 2009; 10(17):2721-4). In this assay, the KID and KIX domains were fused to the N- and C-terminal regions of Renilla luciferase, respectively. Once KIX binds phosphorylated KID, the Renilla luciferase regions were brought together, resulting in luciferase activity.
(§4) To test the ability of Compound A to disrupt CREB-CBP binding in cells, a split Renilla luciferase complementation assay was performed. […] This early timepoint was selected to permit accurate reporter gene activity measurement prior to the onset of anticipated global cell dysfunction or death induced by Compound A. Treatment with 3 μM Compound A reduced luciferase activity by 33.2±7.7% at this timepoint. […] Thus, Compound A inhibits CREB function through disruption of CREB:CBP interaction.

CMV-driven promoter = assay: CMV-driven luciferase reporter in KG-1 cells; format: cell-based; details: 6 hours
Protocol: as §3, §4

KG-1 cells = assay: Viable cell count of engineered KG-1 cell lines (CREB KD, GFP, CREB OE, CBP OE); format: cell-based; details: same four KG-1 cell lines, 30 μM
Protocol: AML cell lines were purchased from ATCC and maintained with IMDM (Gibco) supplemented with 10% FBS (Fisher Scientific) and 1% PSG (Gibco). Cells were plated at a density of 2-4×10^5 cells/ml, and treated with various doses of Compound A in 0.1% DMSO or 0.1% DMSO alone. Cell counts and viability were determined using the Vi-CELL XR Cell Viability Analyzer (Beckman Coulter). HL-60 and KG-1 cells overexpressing CREB or CBP were generated using lentiviral gene delivery with subsequent puromycin selection and FACs sorting for GFP. CREB knockdown was achieved by infecting cells with a lentivirus expressing the shRNA sequence 5′-[…]-3′ (SEQ ID NO:). For chemotherapy combination experiments, combination index values were calculated using median effects analysis on Calcusyn software. Human patient bone marrow samples were cultured in DMEM plus 20% FBS and 1×PSG, supplemented with recombinant GM-CSF (20 ng/ml), G-CSF (20 ng/ml), SCF (50 ng/ml), IL-3 (20 ng/ml), and IL-6 (10 ng/ml). Cells were plated at a concentration of 1×10^5 cells/ml in a 12-well plate. Vehicle (0.1% DMSO) or Compound A (2 μM) was added for up to 72 hours. All samples contained >85% AML blasts and were not sorted prior to performing experiments. Immunostaining and flow cytometry analyses were performed according to standard procedures. All antibodies were purchased from BD Biosciences. Single cell suspensions of bone marrow culture were subsequently analyzed on a D×P10 flow cytometer (Cytek). Bone marrow from AML patients were collected through voluntary patient participation at University of California, Los Angeles (Los Angeles, Calif., USA) and Stanford University (Palo Alto, Calif., USA) in compliance with the Institutional Review Board regulations of each institution.
To test the effects of CREB inhibition on AML cells, four AML cell lines were treated with doses of Compound A ranging from 100 pM to 10 μM for 48 hours. […] KG-1 cells were less sensitive to Compound A and expressed lower levels of CREB compared to HL-60 cells (FIG. 2, panel A). CREB was overexpressed to determine whether sensitivity of KG-1 cells to Compound A could be increased. KG-1 cell lines in which CREB or CBP was overexpressed, or CREB was knocked down by shRNA, were generated (FIG. 2C). A KG-1 cell line expressing only GFP was used as a control. These cell lines were treated with a range of Compound A concentrations for 48 hours (FIG. 2D). Experiments were also performed to examine the efficacy of combining Compound A with cytarabine or daunorubicin, standard drugs used in AML therapy.

Compound: CN(C)CC[C@H](CSc1ccccc1)Nc1ccc(S(=O)(=O)NC(=O)c2ccc(N3CCN(Cc4ccccc4-c4ccc(Cl)cc4)CC3)cc2)cc1[N+](=O)[O-] [ABT-737, reference compound]
- apoptosis (HL-60 cells [1]): Apoptosis was induced
- cell viability (HL-60 cells [2]): reduced cell viability

Compound: CC(C)CCN1c2nc(Nc3cc(F)c(O)c(F)c3)ncc2N(C)C(=O)C1C (centres unmarked) [BI-D1870, reference compound]
- compensatory CREB phosphorylation following Compound A treatment (CREB phosphorylation): blocked compensatory CREB phosphorylation
- effect of combination with Compound A on viability (HL-60 cells [3]): additive effects

Compound: O=C(Nc1ccc([N+](=O)[O-])cc1Cl)c1ccc2cccnc2c1O [Compound 82]
- IC50 ([4]; HL-60, Table 5): 100 to 1000 nM
- IC50 ([5]; Table 5): 100 to 1000 nM
- IC50 ([6]; NALM-6, Table 5): < 100 nM

Compound: O=C(Nc1cc(Cl)ccc1Cl)c1ccc2cccnc2c1O [Compound 83]
- IC50 ([4]; HL-60, Table 5): 1000 to 10000 nM
- IC50 ([5]; Table 5): 100 to 1000 nM
- IC50 ([6]; NALM-6, Table 5): 100 to 1000 nM

Compound: N#Cc1cc(Cl)ccc1NC(=O)c1ccc2cccnc2c1O [Compound 84]
- IC50 ([4]; HL-60, Table 5): 100 to 1000 nM
- IC50 ([5]; Table 5): < 100 nM
- IC50 ([6]; NALM-6, Table 5): 100 to 1000 nM

Compound: N#Cc1ccc(NC(=O)c2ccc3cccnc3c2O)c(C#N)c1 [Compound 85]
- IC50 ([4]; HL-60, Table 5): 100 to 1000 nM
- IC50 ([5]; Table 5): 100 to 1000 nM
- IC50 ([6]; NALM-6, Table 5): 100 to 1000 nM

Compound: Cc1ccc(C#N)c(NC(=O)c2ccc3cccnc3c2O)c1 [Compound 86]
- IC50 ([4]; HL-60, Table 5): 1000 to 10000 nM
- IC50 ([5]; Table 5): 100 to 1000 nM
- IC50 ([6]; NALM-6, Table 5): 100 to 1000 nM

Compound: N#Cc1ccc(NC(=O)c2ccc(-c3ccccc3)cc2O)cc1 [Compound 101]
- IC50 ([4]; HL-60, second Table 4): < 1000 nM
- IC50 ([5]; second Table 4): < 1000 nM
- IC50 ([6]; NALM-6, second Table 4): < 1000 nM

Compound: O=C(Nc1cc(C(F)(F)F)cc(C(F)(F)F)c1)c1cc(Br)ccc1O [Compound 159]
- IC50 ([4]; HL-60, second Table 4): < 1000 nM
- IC50 ([5]; second Table 4): < 1000 nM
- IC50 ([6]; NALM-6, second Table 4): < 1000 nM

Compound: N#Cc1ccc(NC(=O)c2cc(Cl)c(F)cc2O)cc1 [Compound 161]
- IC50 ([4]; HL-60, second Table 4): < 1000 nM
- IC50 ([5]; second Table 4): < 1000 nM
- IC50 ([6]; NALM-6, second Table 4): > 10000 nM

Compound: N#Cc1ccc(NC(=O)c2cc(-c3cc(F)cc(F)c3)ccc2O)cc1 [Compound 233]
- IC50 ([4]; HL-60, second Table 4): 1000 to 10000 nM
- IC50 ([5]; second Table 4): 1000 to 10000 nM
- IC50 ([6]; NALM-6, second Table 4): 1000 to 10000 nM

Compound: Oc1ccc(-c2nc(-c3ccncc3)c(-c3ccc(F)cc3)[nH]2)cc1 [SB202190, reference compound]
- compensatory CREB phosphorylation following Compound A treatment (CREB phosphorylation): blocked compensatory CREB phosphorylation
- effect of combination with Compound A on viability (HL-60 cells [3]): additive effects

Compound: COc1cc([C@@H]2c3cc4c(cc3[C@@H](O[C@@H]3O[C@@H]5CO[C@@H](C)O[C@H]5[C@H](O)[C@H]3O)[C@H]3COC(=O)[C@H]23)OCO4)cc(OC)c1O [etoposide, reference compound]
- relative caspase-3 activity (Caspase-3; 24 hours): 5.4±0.8
- relative caspase-3 activity (Caspase-3; 72 hours): 1.2±0.05

Compound: N-methyl-(4-chlorophenyl)-3-hydroxy-naphthamide [Analog B, reference compound]
- CREB-driven luciferase activity [7]: No statistical difference; also recorded: no significant effect
- CMV-driven luciferase expression (CMV-driven promoter): No statistical difference; also recorded: no significant effect
- viability or proliferation rate (KG-1 cells): no reduction in viability or proliferation rate
